Measured values reported in ChEMBL document CHEMBL1152907, “Synthesis and cytotoxicities of icogenin analogues with disaccharide residues” (Bioorg Med Chem Lett, 2009).

Assays:
Assay type in all cases: functional, cell-based
SW1990 = experiment: Cytotoxicity against human SW1990 cells after 72 hrs by MTT assay; settings: SW1990, 72 h
Bel-7402 = experiment: Cytotoxicity against human Bel7402 cells after 72 hrs by MTT assay; settings: Bel-7402, 72 h
PANC-1 = experiment: Cytotoxicity against human PANC1 cells after 72 hrs by MTT assay; settings: PANC-1, 72 h
MCF7 = experiment: Cytotoxicity against human MCF7 cells after 72 hrs by MTT assay; settings: MCF7, 72 h
BXPC-3 = experiment: Cytotoxicity against human BxPC3 cells after 72 hrs by MTT assay; settings: BXPC-3, 72 h
HCT-8 = experiment: Cytotoxicity against human HCT8 cells after 72 hrs by MTT assay; settings: HCT-8, 72 h
A549 = experiment: Cytotoxicity against human A549 cells after 72 hrs by MTT assay; settings: A549, 72 h
Capan-2 = experiment: Cytotoxicity against human Capan2 cells after 72 hrs by MTT assay; settings: Capan-2, 72 h
A2780 = experiment: Cytotoxicity against human A2780 cells after 72 hrs by MTT assay; settings: A2780, 72 h
HL-60 = experiment: Cytotoxicity against human HL60 cells after 72 hrs; settings: HL-60, 72 h

| Compound | IC50 (SW1990) | IC50 (Bel-7402) | IC50 (PANC-1) | IC50 (MCF7) | IC50 (BXPC-3) | IC50 (HCT-8) | IC50 (A549) | IC50 (Capan-2) | IC50 (A2780) | IC50 (HL-60) |
| --- | --- | --- | --- | --- | --- | --- | --- | --- | --- | --- |
| C[C@@H]1CC[C@@]2(OC1)O[C@H]1C[C@H]3[C@@H]4CC=C5C[C@@H](O[C@@H]6O[C@H](CO)[C@@H](O[C@@H]7O[C@@H](C)[C@H](O)[C@@H](O)[C@H]7O)[C@H](O)[C@H]6O[C@@H]6O[C@@H](C)[C@H](O)[C@@H](O)[C@H]6O)CC[C@]5(C)[C@H]4CC[C@]3(C)[C@H]1[C@@H]2C [DIOSCIN] | 0.5 µM | 0.23 µM | 0.81 µM | 1.03 µM | 0.7 µM | 0.56 µM | 0.7 µM | 0.05 µM | 4.46 µM |  |
| C[C@@H]1CC[C@@]2(OC1)O[C@H]1C[C@H]3[C@@H]4CC=C5C[C@@H](O[C@H]6O[C@H](CO)[C@@H](O)[C@H](O)[C@H]6O[C@@H]6O[C@@H](C)[C@H](O)[C@@H](O)[C@H]6O)CC[C@]5(C)[C@H]4CC[C@]3(C)[C@H]1[C@@H]2C | > 10 µM | > 10 µM | > 10 µM | > 10 µM | > 10 µM | > 10 µM | > 10 µM | > 10 µM | > 10 µM |  |
| CO[C@]1(CC[C@@H](C)CO)O[C@H]2C[C@H]3[C@@H]4CC=C5C[C@@H](O[C@H]6O[C@H](CO)[C@@H](O)[C@H](O)[C@H]6O[C@@H]6O[C@@H](C)[C@H](O)[C@@H](O)[C@H]6O)CC[C@]5(C)[C@H]4CC[C@]3(C)[C@H]2[C@@H]1C | 0.73 µM | 0.94 µM | 0.87 µM | 2.65 µM | 1.04 µM | 1.26 µM | 1.48 µM | 1.36 µM | 7.8 µM |  |
| CO[C@]1(CC[C@@H](C)CO)O[C@H]2C[C@H]3[C@@H]4CC=C5C[C@@H](O[C@@H]6O[C@H](CO)[C@@H](O)[C@H](O[C@@H]7O[C@H](CO)[C@@H](O)[C@H](O)[C@H]7O)[C@H]6O[C@@H]6O[C@@H](C)[C@H](O)[C@@H](O)[C@H]6O)CC[C@]5(C)[C@H]4CC[C@]3(C)[C@H]2[C@@H]1C [ICOGENIN(BETA)] | 1 µM | 0.86 µM | 0.84 µM | 1.07 µM | 1.1 µM | 0.93 µM | 1.86 µM | 1.1 µM | 0.92 µM | 2.6 µM |
| C[C@@H]1CC[C@@]2(OC1)O[C@H]1C[C@H]3[C@@H]4CC=C5C[C@@H](O[C@@H]6O[C@H](CO)[C@@H](O)[C@H](O[C@@H]7O[C@@H](C)[C@H](O)[C@@H](O)[C@H]7O)[C@H]6O)CC[C@]5(C)[C@H]4CC[C@]3(C)[C@H]1[C@@H]2C [POLYPHILLIN C] | 5.4 µM | > 10 µM | 11.8 µM | 3.45 µM | > 10 µM | 4.16 µM | 2.3 µM | 2.7 µM | > 10 µM |  |
| CO[C@]1(CC[C@@H](C)CO)O[C@H]2C[C@H]3[C@@H]4CC=C5C[C@@H](O[C@@H]6O[C@H](CO)[C@@H](O)[C@H](O)[C@H]6O[C@@H]6O[C@@H](C)[C@H](O)[C@@H](O)[C@H]6O)CC[C@]5(C)[C@H]4CC[C@]3(C)[C@H]2[C@@H]1C | 0.66 µM | 0.9 µM | 0.83 µM | 2.89 µM | 1.01 µM | 1.02 µM | 1.08 µM | 1.07 µM | 7.2 µM |  |
| Nc1ccn([C@@H]2O[C@H](CO)[C@@H](O)C2(F)F)c(=O)n1 [GEMCITABINE] | 1.2 µM | 0.84 µM | 5.6 µM | 3.28 µM | 2.9 µM | 1.74 µM | 1.4 µM | 1.7 µM | 0.31 µM |  |
| CO[C@]1(CC[C@@H](C)CO)O[C@H]2C[C@H]3[C@@H]4CC=C5C[C@@H](O[C@H]6O[C@H](CO)[C@@H](O)[C@H](O[C@@H]7O[C@H](CO)[C@@H](O)[C@H](O)[C@H]7O)[C@H]6O[C@@H]6O[C@@H](C)[C@H](O)[C@@H](O)[C@H]6O)CC[C@]5(C)[C@H]4CC[C@]3(C)[C@H]2[C@@H]1C | 0.9 µM | 0.92 µM | 0.82 µM | 1.2 µM | 1 µM | 1.3 µM | 0.89 µM | 1.1 µM | 7.1 µM |  |
| C[C@@H]1CC[C@@]2(OC1)O[C@H]1C[C@H]3[C@@H]4CC=C5C[C@@H](O[C@@H]6O[C@H](CO)[C@@H](O)[C@H](O[C@@H]7O[C@H](CO)[C@@H](O)[C@H](O)[C@H]7O)[C@H]6O[C@@H]6O[C@@H](C)[C@H](O)[C@@H](O)[C@H]6O)CC[C@]5(C)[C@H]4CC[C@]3(C)[C@H]1[C@@H]2C [GRACILLIN] | 1.1 µM | 1.1 µM | 0.7 µM | 17.5 µM | 1.3 µM | 0.92 µM | 0.96 µM | 1.3 µM | 4.3 µM |  |
